# Reference: patent publication US12303509B2, “Compounds for the treatment of BRAF-associated diseases and disorders” (Pfizer Inc., priority 2020, dated 2025)
# Counter-ions that a name gives are not always drawn. Like-named read-outs stand apart in the source and are kept apart here.
# Legend:
# [1] = test system: A375 cells; experiment: Cellular phospho-ERK inhibition assay in A375 cells; type: cell-based; conditions: Homo sapiens, A-375, A375 cells (head prints A357), 2 hours treatment, read-out: A357 cell IC50
# Procedure, shortened: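 In Cell Western detection of phospho-ERK1/2 (Thr202/Tyr204) over GAPDH after 2 h compound exposure (66 pM to 10 μM, 9 points, 0.25% DMSO) of A375 cells in DMEM or H1755 cells in RPMI, both with 10% FBS. Percent of control set by DMSO and 10 μM binimetinib; 4-parameter IC50.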
# [2] = target: P-gp (MDR1) (Homo sapiens (Human), UniProt P08183); experiment: MDR1 LLC-PK1 permeability assay: efflux ratio; type: in vitro ADME; conditions: pig
# Sequence of P-gp (MDR1) (P08183 whole entry, species assumed): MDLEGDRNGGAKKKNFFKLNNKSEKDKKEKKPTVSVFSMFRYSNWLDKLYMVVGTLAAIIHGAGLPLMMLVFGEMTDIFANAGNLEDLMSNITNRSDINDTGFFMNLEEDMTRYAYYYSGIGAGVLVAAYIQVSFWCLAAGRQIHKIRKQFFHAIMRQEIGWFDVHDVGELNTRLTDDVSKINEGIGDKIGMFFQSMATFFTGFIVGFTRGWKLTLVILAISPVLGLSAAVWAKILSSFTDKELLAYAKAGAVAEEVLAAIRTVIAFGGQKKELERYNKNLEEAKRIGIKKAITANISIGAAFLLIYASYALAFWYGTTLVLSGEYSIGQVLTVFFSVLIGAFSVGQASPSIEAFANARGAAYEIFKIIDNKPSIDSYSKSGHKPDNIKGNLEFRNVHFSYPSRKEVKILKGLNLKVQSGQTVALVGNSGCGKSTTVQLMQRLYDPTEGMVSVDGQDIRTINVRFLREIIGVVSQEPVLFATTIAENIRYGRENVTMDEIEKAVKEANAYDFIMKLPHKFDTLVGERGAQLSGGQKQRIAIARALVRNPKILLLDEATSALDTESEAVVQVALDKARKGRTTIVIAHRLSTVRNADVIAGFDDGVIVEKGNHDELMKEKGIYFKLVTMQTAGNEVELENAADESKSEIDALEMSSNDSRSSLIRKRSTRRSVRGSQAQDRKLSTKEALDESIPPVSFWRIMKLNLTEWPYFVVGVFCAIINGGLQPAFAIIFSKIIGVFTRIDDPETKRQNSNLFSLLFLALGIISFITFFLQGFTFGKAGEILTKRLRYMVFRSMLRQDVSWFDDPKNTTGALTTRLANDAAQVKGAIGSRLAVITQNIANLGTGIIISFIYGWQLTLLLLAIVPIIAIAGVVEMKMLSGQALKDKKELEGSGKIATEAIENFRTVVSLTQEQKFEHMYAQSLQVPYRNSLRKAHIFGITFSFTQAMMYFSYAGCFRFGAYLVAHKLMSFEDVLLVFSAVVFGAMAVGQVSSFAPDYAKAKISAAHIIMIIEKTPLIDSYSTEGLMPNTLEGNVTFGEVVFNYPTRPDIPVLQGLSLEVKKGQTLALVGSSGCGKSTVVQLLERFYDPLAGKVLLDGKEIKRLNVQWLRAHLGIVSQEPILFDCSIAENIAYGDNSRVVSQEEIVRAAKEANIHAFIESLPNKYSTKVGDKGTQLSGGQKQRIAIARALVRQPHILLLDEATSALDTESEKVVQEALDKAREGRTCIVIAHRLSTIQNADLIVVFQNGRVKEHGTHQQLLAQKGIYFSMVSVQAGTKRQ
# Text: (§1) Final organic concentration in the assay was 1%.
# [3] = target: full-length FLAG-tagged B-Raf(V600E) (Homo sapiens (Human), UniProt P15056, V600E); experiment: BRAF V600E enzyme assay (TR-FRET competitive displacement); type: binding
# Sequence of full-length FLAG-tagged B-Raf(V600E) (P15056 whole entry V600E): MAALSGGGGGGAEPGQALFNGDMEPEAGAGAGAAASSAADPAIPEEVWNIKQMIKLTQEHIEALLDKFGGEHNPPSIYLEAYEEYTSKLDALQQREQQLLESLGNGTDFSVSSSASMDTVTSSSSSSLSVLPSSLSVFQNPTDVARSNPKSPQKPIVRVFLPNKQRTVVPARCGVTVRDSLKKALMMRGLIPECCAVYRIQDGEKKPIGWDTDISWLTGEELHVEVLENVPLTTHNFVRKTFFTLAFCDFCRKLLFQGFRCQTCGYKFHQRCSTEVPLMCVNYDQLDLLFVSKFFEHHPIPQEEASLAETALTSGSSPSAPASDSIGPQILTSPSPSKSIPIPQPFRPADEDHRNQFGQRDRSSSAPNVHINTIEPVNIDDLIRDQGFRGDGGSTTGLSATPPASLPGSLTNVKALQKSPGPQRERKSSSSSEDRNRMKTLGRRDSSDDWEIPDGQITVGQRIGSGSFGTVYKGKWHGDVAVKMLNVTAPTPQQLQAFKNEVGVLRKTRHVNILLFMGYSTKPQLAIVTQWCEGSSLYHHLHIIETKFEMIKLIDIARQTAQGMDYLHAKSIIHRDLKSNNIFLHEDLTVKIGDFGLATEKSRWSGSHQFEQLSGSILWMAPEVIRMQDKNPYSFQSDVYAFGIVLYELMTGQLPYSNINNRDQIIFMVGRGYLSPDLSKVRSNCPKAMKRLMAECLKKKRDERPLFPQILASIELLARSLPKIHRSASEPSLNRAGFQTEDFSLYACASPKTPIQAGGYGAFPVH
# Procedure, shortened: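 TR-FRET tracer competition: compound (top dose 10 μM, 3-fold, 11 points) incubated 60 min at ambient temperature with FLAG-tagged full-length B-Raf(V600E) (5 nM), Eu anti-FLAG cryptate (0.5 nM) and tracer (50 nM), pH 7.4 HEPES/MgCl2 buffer. 665/615 ratio converted to percent of control; IC50 where fitted curve crosses 50 POC.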
# [4] = target: BCRP (Homo sapiens (Human), UniProt Q9UNQ0); experiment: BCRP MDCKII permeability assay: efflux ratio; type: in vitro ADME; conditions: dog
# Sequence of BCRP (Q9UNQ0 whole entry): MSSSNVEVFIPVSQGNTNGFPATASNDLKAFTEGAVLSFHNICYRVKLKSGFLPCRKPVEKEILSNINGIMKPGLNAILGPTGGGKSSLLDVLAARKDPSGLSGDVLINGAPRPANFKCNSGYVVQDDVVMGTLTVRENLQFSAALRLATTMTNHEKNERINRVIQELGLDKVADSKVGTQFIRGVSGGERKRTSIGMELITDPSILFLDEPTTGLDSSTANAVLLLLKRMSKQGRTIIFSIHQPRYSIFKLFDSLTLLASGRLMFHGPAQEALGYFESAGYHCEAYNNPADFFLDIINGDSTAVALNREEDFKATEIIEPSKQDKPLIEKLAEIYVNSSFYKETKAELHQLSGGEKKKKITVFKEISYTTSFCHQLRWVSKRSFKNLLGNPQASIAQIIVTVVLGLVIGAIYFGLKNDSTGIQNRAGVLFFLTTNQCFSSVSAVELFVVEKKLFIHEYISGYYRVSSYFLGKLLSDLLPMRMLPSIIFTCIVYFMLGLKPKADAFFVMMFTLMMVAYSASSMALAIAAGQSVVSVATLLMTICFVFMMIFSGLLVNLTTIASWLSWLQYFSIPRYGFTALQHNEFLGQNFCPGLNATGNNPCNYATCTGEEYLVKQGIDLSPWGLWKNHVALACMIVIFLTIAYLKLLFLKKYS
# Description: BCRP transfected MDCKII cells were cultured and plated according to manufacturer's recommendations. Assay conditions included with and without the BCRP-specific inhibitor, KO143, at a concentration of 0.3 μM to ascertain the contribution of BCRP to the efflux value of the test compound.
# Both positive and negative controls were used to assess functionality of P-gp or BCRP efflux in the assays. […] Final organic concentration in the assay was 1%. All dosing solutions contained 10 μM lucifer yellow to monitor LLC-PK1 or MDCKII cell monolayer integrity.
# For the apical to basolateral determination (A to B), 75 μL of the test article in transport buffer were added to the apical side of the individual transwells and 250 μL of basolateral media, without compound or lucifer yellow, were added to each well. For the basolateral to apical determination (B to A), 250 μL of test article in transport buffer were added to each well and 75 μL transport buffer, without compound or lucifer yellow, were added to each transwell. All tests were performed in triplicate, and each compound was tested for both apical to basolateral and basolateral to apical transport. The plates were incubated for 2 hours on a Lab-Line Instruments Titer Orbital Shaker (VWR, West Chester, PA) at 50 rpm and 37° C. with 5% CO2. All culture plates were removed from the incubator and 50 μL of media were removed from the apical and basolateral portion of each well and added to 150 μL of 1 μM labetalol in 2:1 acetonitrile (acetonitrile): H2O, v/v.
# These values were accepted when found to be below 2% for apical to basolateral and 5% basolateral to apical flux across the MDR1-transfected LLC-PK1 or BCRP-transfected MDCKII cell monolayers. The plates were sealed and the contents of each well analyzed by LC-MS/MS. The compound concentrations were determined from the ratio of the peak areas of the compound to the internal standard (labetalol) in comparison to the dosing solution.
# The LC-MS/MS system was comprised of an HTS-PAL autosampler (Leap Technologies, Carrboro, NC), an HP1200 HPLC (Agilent, Palo Alto, CA), and a MDS Sciex 4000 Q Trap system (Applied Biosystems, Foster City, CA). […] The total run time, including re-equilibration, for a single injection was 1.2 minutes. Mass spectrometric detection of the analytes was accomplished using the ion spray positive mode.
# An efflux ratio is calculated from the mean apical to basolateral (A-B) Papp data and basolateral to apical (B-A) Papp data using the following equation: Efflux ratio=Papp(B-A)/Papp(A-B)
# [5] = MDR1 LLC-PK1 and BCRP MDCKII permeability assay: permeability coefficient (Papp); type: in vitro ADME
# Text: as §1
# [6] = test system: H1755 cells; experiment: Cellular phospho-ERK inhibition assay in H1755 cells; type: cell-based; conditions: Homo sapiens, NCI-H1755, 2 hours treatment, read-out: H1755 Cell IC50
# Description: A375 and H1755 cells were obtained from the American Type Culture Collection (ATCC, Rockville, MD). A375 cells were maintained in DMEM growth medium containing 10% FBS. H1755 cells were maintained in RPMI growth medium containing 10% FBS.
# Cells were harvested according to standard protocols, counted and plated onto flat-bottom, 96-well tissue culture plates (Costar #3599) at 2.5×10^4 cells/well for A375 cells and 1.5×10^4 cells/well for H1755 cells in 100 μL/well of growth medium containing 10% FBS. After an overnight incubation at 37° C. with 5% CO2 cells were treated for 2 hours at 37° C., 5% CO2 with compounds prepared as a 9-point, 1:3.33 fold dilution series with final compound concentrations ranging from 66 pM-10 μM and a constant DMSO concentration of 0.25%. Control wells contained either 0.25% DMSO alone (uninhibited control) or 10 μM binimetinib (complete inhibition control). The levels of phosphorylated ERK are determined using an In Cell Western protocol: following compound incubation, growth medium was discarded, and cells were fixed with 0.4% formaldehyde in PBS for 20 minutes at room temperature. Cells were permeabilized with 100% methanol for 10 minutes at room temperature. Plates were washed with PBS containing 0.05% Tween-20 and blocked for 1 hour at room temperature with LI-COR Blocking Buffer (LI-COR Biosciences; Cat #927-40000). Plates were then incubated for 2 hours at room temperature with 50 μL of a 1:400 dilution of anti-phospho-ERK1/2 (Thr202/Tyr204) (Cell Signaling; Cat #9101) and a 1:1000 dilution of anti-GAPDH (Millipore; Cat #MAB374) in LI-COR blocking buffer containing 0.05% Tween-20. Plates were washed with PBS containing […] Tween-20 then incubated at room temperature for 1 hour with 50 μL of a 1:1000 dilution of anti-rabbit AlexaFluor 680 (Life Technologies; Cat #A21109) and a 1:1000 dilution of anti-mouse IRDye 800CW (LI-COR; Cat #926-32210) in LI-COR blocking buffer containing 0.05% Tween-20. Plates were analyzed by reading on an Odyssey CLx infrared scanner. For each well, the phospho-ERK signal was normalized to the GAPDH signal and converted to POC using the following equation:
# [formula] • Where: • Xmax Average Uninhibited Controls • Xmin Average Complete Inhibition Controls IC50 values were then calculated using a 4-parameter fit in XLfit software and are provided in Table A1.
# [7] = averaged IC50, TR-FRET tracer displacement, 60 min
Structure (SMILES),IC50 [1] [nM],"efflux ratio at 2 h, 1 µM [2]","IC50 [3, 7] [nM]","efflux ratio at 2 h, 1 µM [4]","Papp at 2 h, 1 µM [5] [×10⁻⁶ cm/s]",IC50 [6] [nM],IC50 [3] [nM]
"COC1CN(S(=O)(=O)Nc2ccc(F)c(Nc3ccc4ncn(C)c(=O)c4c3C)c2Cl)C1 [Example 128, N-(2-chloro-3-((3,5-dimethyl-4-oxo-3,4-dihydroquinazolin-6-yl)amino)-4-fluorophenyl)-3-methoxyazetidine-1-sulfonamide trifluoroacetate]",25,1.5,16,1.3,49,128,
"Cn1cnc2ccc(Nc3c(F)ccc(NS(=O)(=O)N4CCC(F)(F)C4)c3Cl)c(F)c2c1=O [Example 23, N-(2-chloro-4-fluoro-3-((5-fluoro-3-methyl-4-oxo-3,4-dihydroquinazolin-6-yl)amino)phenyl)-3,3-difluoropyrrolidine-1-sulfonamide]",6,3,3,17.6,24,29,
"Cn1cnc2ccc(Nc3c(F)c(F)cc(NS(=O)(=O)N4CCCC4)c3Cl)c(Cl)c2c1=O [Example 31, N-(2-chloro-3-((5-chloro-3-methyl-4-oxo-3,4-dihydroquinazolin-6-yl)amino)-4,5-difluorophenyl)pyrrolidine-1-sulfonamide trifluoroacetate]",9,1.2,1,1,31,168,
"Cc1c(Nc2c(F)ccc(NS(=O)(=O)N3CCC3)c2Cl)ccc2ncn(C)c(=O)c12 [Example 124, N-(2-chloro-3-((3,5-dimethyl-4-oxo-3,4-dihydroquinazolin-6-yl)amino)-4-fluorophenyl)azetidine-1-sulfonamide trifluoroacetate]",21,1.1,17,1.3,43,10000,
"CO[C@@H]1CN(S(=O)(=O)Nc2ccc(F)c(Nc3ccc4ncn(C)c(=O)c4c3F)c2Cl)C[C@@H]1F (relative stereo) [Example 15, cis-N-(2-chloro-4-fluoro-3-((5-fluoro-3-methyl-4-oxo-3,4-dihydroquinazolin-6-yl)amino)phenyl)-3-fluoro-4-methoxypyrrolidine-1-sulfonamide]",2,6.8,6,13.4,26,16,
"Cn1cnc2ccc(Nc3c(F)c(F)cc(NS(=O)(=O)N4CC[C@@H](F)C4)c3Cl)c(F)c2c1=O [Example 46, (R)-N-(2-chloro-4,5-difluoro-3-((5-fluoro-3-methyl-4-oxo-3,4-dihydroquinazolin-6-yl)amino)phenyl)-3-fluoropyrrolidine-1-sulfonamide trifluoroacetate]",2,2.8,1,6.3,30,103,
"Cn1cnc2ccc(Oc3c(F)ccc(NS(=O)(=O)N4CC[C@@H](OC(F)F)C4)c3Cl)c(F)c2c1=O [Example 66, (R)-N-(2-chloro-4-fluoro-3-((5-fluoro-3-methyl-4-oxo-3,4-dihydroquinazolin-6-yl)oxy)phenyl) 3-(difluoromethoxy)pyrrolidine-1-sulfonamide]",6,2.2,,3.1,25,44,4
